Assay results as given in patent publication US9573987B2 (priority 2011, dated 2017).
“And” between values parts separate entries of the source, which are not always exact repeats. Equal entries are not always repeated. *1 amine or outer side, *2 acyl side, *3 side chain or, on linkers, in order; H or OH if unused. Where a SMILES comes first, the peptide text is derived from it. Side-chain parts run from the residue outwards. [ ]: non-standard residue; d: D form. The star is where a group is joined. Phe(4-NH2) = Nc1ccc(C[C@H](N)C(=O)O)cc1; d(εLys) = N[C@H](CCCCN[*:1])C(=O)[*:2]; εLys = N[C@@H](CCCCN[*:1])C(=O)[*:2]; Isobutyryl(2-OH) = CC(C)(O)C(=O)*; NMeA = CN[C@@H](C)C(=O)O; Sar = CNCC(=O)O

B1: DP20 CTPC^0: CTP peptide linked to native proinsulin C peptide as linking peptide (SEQ ID NO: 73) (protein, listed as Homo sapiens)
chain: GEEEEEKGPEHLCGAHLVDALYLVCGDRGFYSSSSRAPPPSLPSPSRLPGPSDTPILPQKRREAEDLQVGQVELGGGPGAGSLQPLALEGSLQRKGIVDECCHRSCDLRRLENYCN
B2: DP20 C^0CTP: native proinsulin C peptide linked to a CTP peptide as linking peptide (SEQ ID NO: 74) (protein, listed as Homo sapiens)
chain: GEEEEEKGPEHLCGAHLVDALYLVCGDRGFYRREAEDLQVGQVELGGGPGAGSLQPLALEGSLQRKSSSSRAPPPSLPSPSRLPGPSDTPILPQKGIVDECCHRSCDLRRLENYCN
B3: DP20 2CTP: two end to end linked CTP peptides as the linking peptide (SEQ ID NO: 75) (protein, listed as Homo sapiens)
chain: GEEEEEKGPEHLCGAHLVDALYLVCGDRGFYSSSSRAPPPSLPSPSRLPGPSDTPILPQKSSSSRAPPPSLPSPSRLPGPSDTPILPQKGIVDECCHRSCDLRRLENYCN

Assays:
[1] = Dipeptide half life on IGF1 (p-NH2-F)A19 analogs in PBS; type: physicochemical; conditions: buffer
Description: Accordingly, the IGF1A chain alone was determined to be a good model for the study of pro-drug half life on IGF1 B:A (Y^B16L^B17) analog peptides. […] For simplicity, prodrug half lives were determined using only the IGF1 A chain in the absence of the B chain. The half lives of each propeptide was determined as described in Example 5.

IGF-1 receptor [2] = molecular target: T1, IGF-1 receptor (Homo sapiens, UniProt P08069); experiment: IGF-1 receptor binding assay (competition, scintillation proximity); design: expressed in transfected cells; plasma membrane fragments; conditions: Table 9
insulin receptor [3] = molecular target: T2, insulin receptor (Homo sapiens, UniProt P06213); experiment: Insulin receptor binding assay (competition, scintillation proximity); design: expressed in transfected cells; plasma membrane fragments; conditions: for Ratio: IGF-1 receptor IC50 over insulin receptor IC50
IGF-1 receptor [4] = molecular target: T1, IGF-1 receptor; experiment: IGF-1 receptor phosphorylation assay, receptor transfected HEK293 cells; type: cell-based; design: expressed in transfected cells; host or cells: HEK293; conditions: Table 10
Description: (§1) Color development was stopped 5 min later by adding 0.05 ml 1 N HCl. Absorbance at 450 nm was measured on Titertek Multiscan MCC340 (ThermoFisher, Pittsburgh, Pa.).

insulin receptor [5] = molecular target: T2, insulin receptor; experiment: Insulin receptor phosphorylation assay, receptor transfected HEK293 cells; type: cell-based; design: expressed in transfected cells; host or cells: HEK293; conditions: for in vitro phosphorylation activity at the insulin receptor (result in words): FIGS. 22A, 22B
Description: as §1

T1 sequence (P08069 31-736 limits assumed): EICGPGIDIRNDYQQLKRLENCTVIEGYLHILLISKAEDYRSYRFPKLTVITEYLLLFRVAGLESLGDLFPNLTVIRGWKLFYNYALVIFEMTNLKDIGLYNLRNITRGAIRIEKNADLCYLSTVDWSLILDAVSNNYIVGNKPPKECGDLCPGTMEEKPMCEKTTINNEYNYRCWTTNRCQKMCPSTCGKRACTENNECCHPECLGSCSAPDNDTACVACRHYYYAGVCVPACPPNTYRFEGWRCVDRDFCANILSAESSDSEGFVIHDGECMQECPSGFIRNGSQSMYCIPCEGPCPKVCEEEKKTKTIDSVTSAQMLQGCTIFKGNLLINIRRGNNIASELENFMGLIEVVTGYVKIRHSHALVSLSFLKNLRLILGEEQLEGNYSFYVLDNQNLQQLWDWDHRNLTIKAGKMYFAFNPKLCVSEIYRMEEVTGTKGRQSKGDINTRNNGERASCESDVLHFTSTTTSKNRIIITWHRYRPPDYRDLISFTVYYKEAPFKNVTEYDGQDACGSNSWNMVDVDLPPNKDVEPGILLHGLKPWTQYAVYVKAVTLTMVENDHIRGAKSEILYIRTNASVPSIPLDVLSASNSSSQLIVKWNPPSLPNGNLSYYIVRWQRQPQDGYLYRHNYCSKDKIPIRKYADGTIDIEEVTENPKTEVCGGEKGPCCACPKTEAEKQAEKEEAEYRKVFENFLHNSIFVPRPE
T1 sequence (P08069 741-1367 partner limits assumed): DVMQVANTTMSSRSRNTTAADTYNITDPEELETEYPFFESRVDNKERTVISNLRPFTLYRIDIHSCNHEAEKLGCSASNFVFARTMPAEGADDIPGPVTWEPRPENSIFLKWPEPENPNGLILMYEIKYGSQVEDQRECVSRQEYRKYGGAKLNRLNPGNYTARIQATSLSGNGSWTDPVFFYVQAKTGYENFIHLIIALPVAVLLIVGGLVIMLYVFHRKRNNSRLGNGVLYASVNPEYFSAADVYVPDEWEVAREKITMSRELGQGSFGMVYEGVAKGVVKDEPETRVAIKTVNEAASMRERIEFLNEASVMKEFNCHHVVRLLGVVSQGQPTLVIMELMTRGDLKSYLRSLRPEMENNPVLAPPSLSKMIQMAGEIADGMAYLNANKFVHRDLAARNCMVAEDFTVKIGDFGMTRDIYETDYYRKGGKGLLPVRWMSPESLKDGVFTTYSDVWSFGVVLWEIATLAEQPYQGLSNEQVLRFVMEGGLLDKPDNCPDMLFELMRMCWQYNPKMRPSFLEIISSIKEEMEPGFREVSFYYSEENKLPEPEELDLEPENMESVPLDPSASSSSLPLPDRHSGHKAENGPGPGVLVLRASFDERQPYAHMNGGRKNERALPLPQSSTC

| Molecule | half-life ([1]; Half Life (hr)) | half-life ([1]; Half Life (hr) PBS) | in vitro phosphorylation activity at the insulin receptor (result in words) (insulin receptor [5]) | further results |
| --- | --- | --- | --- | --- |
| CC[C@H](C)[C@H](NC(=O)CN)C(=O)N[C@H](C(=O)N[C@@H](CC(=O)O)C(=O)N[C@@H](CCC(=O)O)C(=O)N[C@@H](C)C(=O)N[C@@H](C)C(=O)N[C@@H](Cc1ccccc1)C(=O)N[C@@H](CCCNC(=N)N)C(=O)N[C@@H](CO)C(=O)N[C@@H](C)C(=O)N[C@@H](CC(=O)O)C(=O)N[C@@H](CC(C)C)C(=O)N[C@@H](CCCNC(=N)N)C(=O)N[C@@H](CCCNC(=N)N)C(=O)N[C@@H](CC(C)C)C(=O)N[C@@H](CCC(=O)O)C(=O)N[C@@H](CCSC)C(=O)N[C@@H](Cc1ccc(NC(=O)[C@@H]2CCCN2C(=O)C(C)(C)O)cc1)C(=O)N[C@@H](C)C(=O)N[C@@H](C)C(N)=O)C(C)C [AiBOH Pro] (H-GIVDEAAFRSADLRRLEM[Phe(4-NH2)]([Pro-Isobutyryl(2-OH)])AA-NH2; N-terminus assumed) | 165 h | 165 h | – | – |
| CC[C@H](C)[C@H](NC(=O)CN)C(=O)N[C@H](C(=O)N[C@@H](CC(=O)O)C(=O)N[C@@H](CCC(=O)O)C(=O)N[C@@H](C)C(=O)N[C@@H](C)C(=O)N[C@@H](Cc1ccccc1)C(=O)N[C@@H](CCCNC(=N)N)C(=O)N[C@@H](CO)C(=O)N[C@@H](C)C(=O)N[C@@H](CC(=O)O)C(=O)N[C@@H](CC(C)C)C(=O)N[C@@H](CCCNC(=N)N)C(=O)N[C@@H](CCCNC(=N)N)C(=O)N[C@@H](CC(C)C)C(=O)N[C@@H](CCC(=O)O)C(=O)N[C@@H](CCSC)C(=O)N[C@@H](Cc1ccc(NC(=O)CN(C)C(=O)C(C)(C)O)cc1)C(=O)N[C@@H](C)C(=O)N[C@@H](C)C(N)=O)C(C)C [AiBOH Sar] (H-GIVDEAAFRSADLRRLEM[Phe(4-NH2)]([Sar-Isobutyryl(2-OH)])AA-NH2; N-terminus assumed) | 2.3 h | 2.3 h | – | – |
| CC[C@H](C)[C@H](NC(=O)CN)C(=O)N[C@H](C(=O)N[C@@H](CC(=O)O)C(=O)N[C@@H](CCC(=O)O)C(=O)N[C@H]1CSSC[C@@H]2NC(=O)[C@H](CO)NC(=O)[C@H](CCCNC(=N)N)NC(=O)[C@H](Cc3ccccc3)NC(=O)[C@H](CSSC[C@H](NC(=O)[C@H](CC(C)C)NC(=O)[C@H](Cc3c[nH]cn3)NC(=O)[C@H](CCC(=O)O)NC(=O)[C@@H]3CCCN3C(=O)CN)C(=O)NCC(=O)N[C@@H](C)C(=O)N[C@@H](CC(=O)O)C(=O)N[C@@H](CC(C)C)C(=O)N[C@@H](C(C)C)C(=O)N[C@@H](CC(=O)O)C(=O)N[C@@H](C)C(=O)N[C@@H](CC(C)C)C(=O)N[C@@H](Cc3ccc(O)cc3)C(=O)N[C@@H](CC(C)C)C(=O)N[C@@H](C(C)C)C(=O)N[C@H](C(=O)NCC(=O)N[C@@H](CC(=O)O)C(=O)N[C@@H](CCCNC(=N)N)C(=O)NCC(=O)N[C@@H](Cc3ccccc3)C(=O)N[C@@H](Cc3ccc(O)cc3)C(N)=O)CSSC[C@@H](C(=O)N[C@@H](C)C(N)=O)NC(=O)[C@H](Cc3ccc(O)cc3)NC(=O)[C@H](CCSC)NC(=O)[C@H](CCC(=O)O)NC(=O)[C@H](CC(C)C)NC(=O)[C@H](CCCNC(=N)N)NC(=O)[C@H](CCCNC(=N)N)NC(=O)[C@H](CC(C)C)NC(=O)[C@H](CC(=O)O)NC2=O)NC1=O)C(C)C [IGF-1 A:B (H5D10Y16L17) DPI] | – | – | – | IGF-1 Receptor % IGF-1 (in test) (IGF-1 receptor [2]): 11.2%; Ratio (insulin receptor [3]): 29.1; Insulin Receptor % insulin (in test) (insulin receptor [3]; Table 9): 479.0%; IGF-1 Receptor % IGF (IGF-1 receptor [4]): 7.1%; EC50 (IGF-1 receptor [4]; total phosphorylation): 12.2 nM |
| CC[C@H](C)[C@H](NC(=O)CN)C(=O)N[C@H](C(=O)N[C@@H](CC(=O)O)C(=O)N[C@@H](CCC(=O)O)C(=O)N[C@H]1CSSC[C@@H]2NC(=O)[C@H](CO)NC(=O)[C@H](CCCNC(=N)N)NC(=O)[C@H](Cc3ccccc3)NC(=O)[C@H](CSSC[C@H](NC(=O)[C@H](CC(C)C)NC(=O)[C@@H](NC(=O)[C@H](CCC(=O)O)NC(=O)[C@@H]3CCCN3C(=O)CN)[C@@H](C)O)C(=O)NCC(=O)N[C@@H](C)C(=O)N[C@@H](CCC(=O)O)C(=O)N[C@@H](CC(C)C)C(=O)N[C@@H](C(C)C)C(=O)N[C@@H](CC(=O)O)C(=O)N[C@@H](C)C(=O)N[C@@H](CC(C)C)C(=O)N[C@@H](Cc3ccc(O)cc3)C(=O)N[C@@H](CC(C)C)C(=O)N[C@@H](C(C)C)C(=O)N[C@H](C(=O)NCC(=O)N[C@@H](CC(=O)O)C(=O)N[C@@H](CCCNC(=N)N)C(=O)NCC(=O)N[C@@H](Cc3ccccc3)C(=O)N[C@@H](Cc3ccc(O)cc3)C(=O)N[C@@H](Cc3ccccc3)C(=O)N[C@@H](CC(N)=O)C(=O)N[C@@H](CCCCN)C(=O)N3CCC[C@H]3C(=O)N[C@H](C(=O)N[C@@H](CCC(=O)O)C(=O)N[C@@H](CCC(=O)O)C(=O)O)[C@@H](C)O)CSSC[C@@H](C(=O)N[C@@H](C)C(N)=O)NC(=O)[C@H](Cc3ccc(O)cc3)NC(=O)[C@H](CCSC)NC(=O)[C@H](CCC(=O)O)NC(=O)[C@H](CC(C)C)NC(=O)[C@H](CCCNC(=N)N)NC(=O)[C@H](CCCNC(=N)N)NC(=O)[C@H](CC(C)C)NC(=O)[C@H](CC(=O)O)NC2=O)NC1=O)C(C)C [IGF-1 A:B(E10 Y16L17)-E31E3 2B-COOH] | – | – | – | IGF-1 Receptor % IGF-1 (in test) (IGF-1 receptor [2]): 3.0%; EC50 (insulin receptor [5]; Insulin Receptor EC50:, total phosphorylation, Table 10): 7 nM and 8.52 nM; Insulin Receptor % Insulin (insulin receptor [5]; Table 10): 18.1% and 31.7%; Ratio (insulin receptor [3]): 14.3; Insulin Receptor % insulin (in test) (insulin receptor [3]; Table 9): 36.5%; Insulin Receptor % native insulin activity (0.6 nM) (insulin receptor [3]; Table 9): 50.0% |
| CC[C@H](C)[C@H](NC(=O)CN)C(=O)N[C@H](C(=O)N[C@@H](CC(=O)O)C(=O)N[C@@H](CCC(=O)O)C(=O)N[C@@H](C)C(=O)N[C@@H](C)C(=O)N[C@@H](Cc1ccccc1)C(=O)N[C@@H](CCCNC(=N)N)C(=O)N[C@@H](CO)C(=O)N[C@@H](C)C(=O)N[C@@H](CC(=O)O)C(=O)N[C@@H](CC(C)C)C(=O)N[C@@H](CCCNC(=N)N)C(=O)N[C@@H](CCCNC(=N)N)C(=O)N[C@@H](CC(C)C)C(=O)N[C@@H](CCC(=O)O)C(=O)N[C@@H](CCSC)C(=O)N[C@@H](Cc1ccc(NC(=O)[C@H](C)N(C)C(=O)[C@@H](N)CCCCNC(C)=O)cc1)C(=O)N[C@@H](C)C(=O)N[C@@H](C)C(N)=O)C(C)C [K(acetyl) N-methyl Ala] (H-GIVDEAAFRSADLRRLEM[Phe(4-NH2)]([NMeA-εLys-Ac])AA-NH2; N-terminus assumed) | 23.6 h | 23.6 h | – | – |
| CC[C@H](C)[C@H](NC(=O)CN)C(=O)N[C@H](C(=O)N[C@@H](CC(=O)O)C(=O)N[C@@H](CCC(=O)O)C(=O)N[C@@H](C)C(=O)N[C@@H](C)C(=O)N[C@@H](Cc1ccccc1)C(=O)N[C@@H](CCCNC(=N)N)C(=O)N[C@@H](CO)C(=O)N[C@@H](C)C(=O)N[C@@H](CC(=O)O)C(=O)N[C@@H](CC(C)C)C(=O)N[C@@H](CCCNC(=N)N)C(=O)N[C@@H](CCCNC(=N)N)C(=O)N[C@@H](CC(C)C)C(=O)N[C@@H](CCC(=O)O)C(=O)N[C@@H](CCSC)C(=O)N[C@@H](Cc1ccc(NC(=O)[C@H](C)N(C)C(=O)[C@H](N)CCCCNC(C)=O)cc1)C(=O)N[C@@H](C)C(=O)N[C@@H](C)C(N)=O)C(C)C [dK(acetyl) N-methyl Ala] (H-GIVDEAAFRSADLRRLEM[Phe(4-NH2)]([NMeA-d(εLys)-Ac])AA-NH2; N-terminus assumed) | 35.3 h | 35.3 h | – | – |
| CC[C@H](C)[C@H](NC(=O)CN)C(=O)N[C@H](C(=O)N[C@@H](CC(=O)O)C(=O)N[C@@H](CCC(=O)O)C(=O)N[C@@H](C)C(=O)N[C@@H](C)C(=O)N[C@@H](Cc1ccccc1)C(=O)N[C@@H](CCCNC(=N)N)C(=O)N[C@@H](CO)C(=O)N[C@@H](C)C(=O)N[C@@H](CC(=O)O)C(=O)N[C@@H](CC(C)C)C(=O)N[C@@H](CCCNC(=N)N)C(=O)N[C@@H](CCCNC(=N)N)C(=O)N[C@@H](CC(C)C)C(=O)N[C@@H](CCC(=O)O)C(=O)N[C@@H](CCSC)C(=O)N[C@@H](Cc1ccc(NC(=O)CN(C)C(=O)[C@H](N)CCCCNC(C)=O)cc1)C(=O)N[C@@H](C)C(=O)N[C@@H](C)C(N)=O)C(C)C [dK(acetyl) Sar] (H-GIVDEAAFRSADLRRLEM[Phe(4-NH2)]([Sar-d(εLys)-Ac])AA-NH2; N-terminus assumed) | 16.3 h | 17.2 h | – | – |
| B1 | – | – | appears more potent than DP20 C^0CTP | – |
| B2 | – | – | appear to have activity at the insulin receptor | – |
| B3 | – | – | appears to be active as an insulin agonist | – |
